Source: patent US9474790B2, “Stable, protracted GLP-1/glucagon receptor co-agonists for medical use” (Novo Nordisk A/S, priority 2013, dated 2016)
Numbered stars: 1 amine (or outer) side, 2 acyl side, 3 side chain; on linkers, the order of the positions; unused ones are H or OH. Bridge positions count the residues as written; N and C are the ends. Square brackets hold non-standard residues; d marks the D form. Side chains are listed from the residue outwards. Peptide text beside a SMILES is read from it. I, II: the chains in the order shown. * marks the point of attachment. C18 diacid = O=C(O)CCCCCCCCCCCCCCCCC(=O)*; γGlu = O=C(O)[C@H](CCC(=O)[*:2])N[*:1]; Ac4c = NC1(C(=O)O)CCC1; AEEA = NCCOCCOCC(=O)O; Aib = CC(C)(N)C(=O)O

Each compound was assayed against T1, human GLP-1 receptor (Homo sapiens, UniProt P43220) (assay: GLP-1 receptor binding, 125I-GLP-1 displacement SPA on isolated membranes). Details: displacement of 125I-GLP-1 from membranes; read-out: IC50 GLP-1R.
T1 construct: expressed in transfected cells; host or cells: BHK cells (parent BHKTS13), clone FCW467-12A/KZ10-1, with CRE luciferase
T1 sequence (P43220 24-463): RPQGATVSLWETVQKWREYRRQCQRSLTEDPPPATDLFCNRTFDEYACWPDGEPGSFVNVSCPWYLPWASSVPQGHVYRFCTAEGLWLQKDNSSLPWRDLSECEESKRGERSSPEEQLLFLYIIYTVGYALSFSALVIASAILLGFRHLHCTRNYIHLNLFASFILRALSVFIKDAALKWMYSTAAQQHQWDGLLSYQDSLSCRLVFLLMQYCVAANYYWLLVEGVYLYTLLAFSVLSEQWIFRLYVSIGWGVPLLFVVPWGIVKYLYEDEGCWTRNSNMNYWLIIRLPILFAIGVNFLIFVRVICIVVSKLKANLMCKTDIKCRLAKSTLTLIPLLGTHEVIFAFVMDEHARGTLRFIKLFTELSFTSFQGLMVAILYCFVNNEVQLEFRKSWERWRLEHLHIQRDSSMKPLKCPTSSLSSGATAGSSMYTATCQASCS
In short: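 Test derivatives, serially diluted, competed with 125I-GLP-1(7-36)NH2 for the human GLP-1 receptor on BHK membranes, read by WGA-bead scintillation proximity after 2 h at 30°C, pH 7.4 HEPES/EGTA/MgCl2 buffer. Final serum albumin was either ≤0.001% or 2.0%; IC50 from non-linear fit.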

**Q.** `CC(C)C[C@H](NC(=O)[C@H](Cc1ccc(O)cc1)NC(=O)[C@H](CCCCN)NC(=O)[C@H](CO)NC(=O)[C@H](CC(C)C)NC(=O)[C@H](CC(=O)O)NC(=O)[C@H](CO)NC(=O)[C@@H](NC(=O)[C@H](Cc1ccccc1)NC(=O)[C@@H](NC(=O)CNC(=O)[C@H](Cc1c[nH]cn1)NC(=O)C(C)(C)NC(=O)[C@@H](N)Cc1c[nH]cn1)[C@@H](C)O)[C@@H](C)O)C(=O)N[C@@H](CCC(=O)O)C(=O)N[C@@H](CO)C(=O)N[C@@H](CCCCN)C(=O)N[C@@H](CCCNC(=N)N)C(=O)N[C@@H](C)C(=O)N[C@@H](CCCNC(=N)N)C(=O)N[C@@H](CCC(=O)O)C(=O)N[C@@H](Cc1ccccc1)C(=O)N[C@H](C(=O)N[C@@H](CCC(N)=O)C(=O)N[C@@H](Cc1c[nH]c2ccccc12)C(=O)N[C@@H](CC(C)C)C(=O)N[C@@H](CC(C)C)C(=O)N[C@@H](CCCCNC(=O)CC[C@H](NC(=O)CC[C@H](NC(=O)COCCOCCNC(=O)COCCOCCNC(=O)CC[C@H](NC(=O)CCCCCCCCCCCCCCCCC(=O)O)C(=O)O)C(=O)O)C(=O)O)C(=O)N[C@H](C(N)=O)[C@@H](C)O)C(C)C` [Example 27, N^ε28-[(4S)-4-carboxy-4-[[(4S)-4-carboxy-4-[[2-[2-[2-[[2-[2-[2-[[(4S)-4-carboxy-4-(17-carboxyheptadecanoylamino)butanoyl]amino]ethoxy]ethoxy]acetyl]amino]ethoxy]ethoxy]acetyl]amino]butanoyl]amino]butanoyl]-[Aib2,His3,Leu10,Glu15,Lys17,Arg20,Glu21,Leu27, Lys28]-Glucagon amide] (H-H[Aib]HGTFTSDLSKYLESKRAREFVQWLLK([γGlu-γGlu-AEEA-AEEA-γGlu-C18 diacid])T-NH2; N-terminus assumed) was tested. Which IC50 did it give?
**A.** 0.9 nM

**Q.** Which IC50 does the source give for `CC(C)C[C@H](NC(=O)[C@H](CC(=O)O)NC(=O)[C@H](CC(C)C)NC(=O)[C@H](Cc1ccc(O)cc1)NC(=O)[C@H](CCCCN)NC(=O)[C@H](CO)NC(=O)[C@H](CC(C)C)NC(=O)[C@H](CC(=O)O)NC(=O)[C@H](CO)NC(=O)[C@@H](NC(=O)[C@H](Cc1ccccc1)NC(=O)[C@@H](NC(=O)CNC(=O)[C@H](CCC(N)=O)NC(=O)C1(NC(=O)[C@@H](N)Cc2c[nH]cn2)CCC1)[C@@H](C)O)[C@@H](C)O)C(=O)N[C@@H](CCCCN)C(=O)N[C@@H](CCCNC(=N)N)C(=O)N[C@@H](C)C(=O)N[C@@H](CCCNC(=N)N)C(=O)N[C@@H](CCC(=O)O)C(=O)N[C@@H](Cc1ccccc1)C(=O)N[C@H](C(=O)N[C@@H](CCC(N)=O)C(=O)N[C@@H](Cc1c[nH]c2ccccc12)C(=O)N[C@@H](CC(C)C)C(=O)N[C@@H](CC(C)C)C(=O)N[C@@H](CCCCNC(=O)CNC(=O)[C@H](CO)NC(=O)[C@H](CCC(=O)O)NC(=O)CNC(=O)[C@H](CO)NC(=O)CC[C@H](NC(=O)CC[C@H](NC(=O)CCCCCCCCCCCCCCCCC(=O)O)C(=O)O)C(=O)O)C(=O)N[C@H](C(N)=O)[C@@H](C)O)C(C)C` [Example 48] (I: H-H[Ac4c]QGTFTSDLSKYLDLKRAREFVQWLLKT-NH2 / II: {C18 diacid-γGlu-γGlu}-SGESG; amide I:28-II:C; N-terminus assumed) here?
**A.** 0.2 nM

**Q.** Which IC50 does the source give for `CC(C)C[C@H](NC(=O)[C@H](Cc1ccc(O)cc1)NC(=O)[C@H](CCCCN)NC(=O)[C@H](CO)NC(=O)[C@H](CC(C)C)NC(=O)[C@H](CC(=O)O)NC(=O)[C@H](CO)NC(=O)[C@@H](NC(=O)[C@H](Cc1ccccc1)NC(=O)[C@@H](NC(=O)CNC(=O)[C@H](CCC(N)=O)NC(=O)C(C)(C)NC(=O)[C@@H](N)Cc1c[nH]cn1)[C@@H](C)O)[C@@H](C)O)C(=O)N[C@@H](CCC(=O)O)C(=O)N[C@@H](CO)C(=O)N[C@@H](CCCCN)C(=O)N[C@@H](CCCNC(=N)N)C(=O)N[C@@H](C)C(=O)N[C@@H](CCCNC(=N)N)C(=O)N[C@@H](CCC(=O)O)C(=O)N[C@@H](Cc1ccccc1)C(=O)N[C@H](C(=O)N[C@@H](CCC(N)=O)C(=O)N[C@@H](Cc1c[nH]c2ccccc12)C(=O)N[C@@H](CC(C)C)C(=O)N[C@@H](CC(C)C)C(=O)N[C@@H](CCCCNC(=O)CC[C@H](NC(=O)CC[C@H](NC(=O)[C@H](CO)NC(=O)[C@H](CCC(=O)O)NC(=O)[C@H](CO)NC(=O)CC[C@H](NC(=O)CC[C@H](NC(=O)CCCCCCCCCCCCCCCCC(=O)O)C(=O)O)C(=O)O)C(=O)O)C(=O)O)C(=O)N[C@H](C(N)=O)[C@@H](C)O)C(C)C` [Example 54, N^ε28-[(4S)-4-carboxy-4-[[(4S)-4-carboxy-4-[[(2S)-2-[[(2S)-4-carboxy-2-[[(2S)-2-[[(4S)-4-carboxy-4-[[(4S)-4-carboxy-4-(17-carboxyheptadecanoylamino)butanoyl]amino]butanoyl]amino]-3-hydroxypropanoyl]amino]butanoyl]amino]-3-hydroxypropanoyl]amino]butanoyl]amino]butanoyl]-[Aib2,Leu10,Glu15,Lys17,Arg20,Glu21,Leu27,Lys28]-Glucagon amide] (H-H[Aib]QGTFTSDLSKYLESKRAREFVQWLLK([γGlu-γGlu-Ser-Glu-Ser-γGlu-γGlu-C18 diacid])T-NH2; N-terminus assumed) here?
**A.** 0.2 nM

**Q.** `CC(C)C[C@H](NC(=O)[C@H](CC(=O)O)NC(=O)[C@H](CC(C)C)NC(=O)[C@H](Cc1ccc(O)cc1)NC(=O)[C@H](CCCCN)NC(=O)[C@H](CO)NC(=O)[C@H](CC(C)C)NC(=O)[C@H](CC(=O)O)NC(=O)[C@H](CO)NC(=O)[C@@H](NC(=O)[C@H](Cc1ccccc1)NC(=O)[C@@H](NC(=O)CNC(=O)[C@H](CCC(N)=O)NC(=O)C1(NC(=O)[C@@H](N)Cc2c[nH]cn2)CCC1)[C@@H](C)O)[C@@H](C)O)C(=O)N[C@@H](CCCCN)C(=O)N[C@@H](CCCNC(=N)N)C(=O)N[C@@H](C)C(=O)N[C@@H](CCCNC(=N)N)C(=O)N[C@@H](CCC(=O)O)C(=O)N[C@@H](Cc1ccccc1)C(=O)N[C@H](C(=O)N[C@@H](CCC(N)=O)C(=O)N[C@@H](Cc1c[nH]c2ccccc12)C(=O)N[C@@H](CC(C)C)C(=O)N[C@@H](CC(C)C)C(=O)N[C@@H](CCCCNC(=O)CC[C@H](NC(=O)CC[C@H](NC(=O)COCCOCCNC(=O)COCCOCCNC(=O)CC[C@H](NC(=O)CC[C@H](NC(=O)CCCCCCCCCCCCCCCCC(=O)O)C(=O)O)C(=O)O)C(=O)O)C(=O)O)C(=O)N[C@H](C(N)=O)[C@@H](C)O)C(C)C` [Example 47, N^ε28-[(4S)-4-carboxy-4-[[(4S)-4-carboxy-4-[[2-[2-[2-[[2-[2-[2-[[(4S)-4-carboxy-4-[[(4S)-4-carboxy-4-(17-carboxyheptadecanoylamino)butanoyl]amino]butanoyl]amino]ethoxy]ethoxy]acetyl]amino]ethoxy]ethoxy]acetyl]amino]butanoyl]amino]butanoyl]-[Acb2,Leu10,Leu16,Lys17,Arg20,Glu21,Leu27,Lys28]-Glucagon amide] (H-H[Ac4c]QGTFTSDLSKYLDLKRAREFVQWLLK([γGlu-γGlu-AEEA-AEEA-γGlu-γGlu-C18 diacid])T-NH2; N-terminus assumed) was tested. Which IC50 did it give?
**A.** 0.2 nM
